# Measurements taken from US8877483B2, “Dioxin elimination promoter” (priority 2002, dated 2014).
# Test system: liver cytochrome P450
# Experiment: EPR spectra of rat liver after oral administration of PCB126 (construction of model animals)
# Assay type: in vivo
# Conditions: rats, single forced oral dose 0, 0.3, 3, 30 or 100 μg/kg bw in corn oil, liver isolated 24 hour after administration; FIG. 1
# Method: When the EPR measurement is carried out with rat liver as an experimental animal, the resonance absorption of an iron atom contained in cytochrome P450 protein is observed at a position of g=2.40. When dioxin were administered to a rat, an abnormal resonance absorption which is not observed in untreated case appears as a signal at a position of g=2.49, in addition to the normal resonance absorptions. Since the intensity of the abnormal signal becomes higher according to increase of an amount of dioxins administered, it can be a living body index showing a degree of pollution.
# As laboratory animals, rats to which PCB 126 (3,3′,4,4′,5-pentachlorobiphenyl) had been administered were prepared. The rats were 6-week-old Sprangue-Dawley (purchased from Nippon Charles River). After acclimation rearing for about one week, they forcedly administered with solutions containing an adequate concentration of PCB 126 (manufactured by Wellington Laboratories; purity: 99.99% or more) dissolved in commercially available corn oil (manufactured by Hayashi Chemicals) so that the amount of cPCB was 0 (control), 0.3, 3, 30 or 100 μg/kg body weight (bw) in the same amount of corn oil through a probe. PCB-administered rats were euthanized with ether 24 hour after the administration. […] Then, tissue fragments were analyzed by an EPR measurement method. […]
smiles,measurement,value
"Clc1ccc(-c2cc(Cl)c(Cl)c(Cl)c2)cc1Cl [cPCB, 3,3′,4,4′,5-pentachlorobiphenyl]",abnormal EPR signal at g=2.49 in liver tissue fragments,intensity varies depending on the administered amount
